According to patent US7892833B2, “Using inhibitors of histone deacetylases for the suppression therapy of inherited disease predisposing conditions” (TopoTarget Germany AG, priority 2003, dated 2011):
“Also recorded” adds a separate entry of the source.

How the values were obtained:
[1] = test system: cell lines with proven mutations of crucial genes; assay: Cell viability assay (MTT test); assay type: cell-based; conditions: 0.5 to 3 mM, 40 h to 70 h, all the cell lines tested, vs. untreated cells
Experimental: In FIG. 1 cell lines are listed with proven mutations of crucial genes which in an inherited way establish a condition that predisposes a person to develop a disorder. The cells were grown in the respective medium as described in FIG. 1.
The cell lines listed in table 1 were seeded in 96 well plates at a density of 1×10^4 cells/well in normal growth medium. 2-propyl pentanoic acid was added at final concentrations between 0.5 and 3 mM to triplicate samples and the cells were incubated for 40 h to 70 h. Control cells were grown in the absence of 2-propyl pentanoic acid. Ten μl of 10 mg/ml 3-(4,5-dimethylthiazole-2-yl)-2,5 diphenyltetrazolium bromide (MTT) (Sigma, Deisenhofen, Germany) in PBS were added to each well and the cells were incubated for another 3 h. Cells were lysed by the addition of 90 μl of lysis buffer (20% SDS in 50% dimethyl formamide, pH 4.7). After solubilization of the formazan product, the absorption at 590 nm was determined in a microplate reader (Dynatech, Denkendorf, Germany) and the relative amount of viable cells in comparison to cells grown without the addition of 2-propyl pentanoic acid was determined.

C57BL/6J-APC^min mice = assay: APC^min mouse model, adenoma count after four weeks of treatment; assay type: in vivo
Experimental: Ten to sixteen weeks old age- and sex-matched heterozygous C57BL/6J-APC^min mice (Jackson Laboratories, Bar Harbor, Me.) were either left untreated or were treated with 2-PPA or Celecoxib. Control animal were injected (i.p.) with PBS. 2-PPA was injected as isotonic aequous solution of the sodium salt (2×400 mg/kg/day) for four weeks, while Celecoxib was fed to the animals ad libidum at 1250 ppm (0, 12%) for four weeks. At necropsy entire intestinal tracts were opened longitudinally and fixed in 10% phosphate buffered formaldehyde for 24 h. Polyp contrast was increased performing a 1 min staining in 0.1% methylene blue prior to determination of polyp numbers and sizes under a dissecting microscope by two independent observers unaware of the treatment that the mice had received.

[2] = test system: Human immortalized keratinocytes (HaCaT cells); assay: Cytokine mRNA by semiquantitative RT-PCR in LPS-stimulated keratinocytes; assay type: cell-based; conditions: 4 h preincubation (200 nM TSA or 5 mM 2PPA), LPS 24 h; for level of IL-6 mRNA / level of TNF-α mRNA: vs. untreated stimulated control
Experimental: Human immortalized keratinocytes (HaCaT cells) were seeded at a density of 2.5 million cells per ml into 75 cm^2 flasks. […] After 24 hours at 37° C. cells were lysed and total RNA was isolated using the RNeasy mini kit from Qiagen.
(§1) One microgram of total RNA was transcribed to cDNA by standard methods using reverse transcriptase and an oligo-dT primer (Invitrogen). For semiquantitative PCR, 2 μl of cDNA was amplified by PCR using specific primers. Primers for PCR were synthesized by MWG and are as follows: […]

[3] = test system: Peripheral blood lymphocytes (PBL's); assay: Cytokine mRNA by semiquantitative RT-PCR in PMA/Ion-stimulated PBLs; assay type: cell-based, human; conditions: for IL-6 mRNA / PMA/Ion mediated stimulation of IL-4 mRNA: 2 h preincubation, PMA/Ion 24 h; for modulation of cytokine expression: PMA/Ion, FIGS. 4A and B
Experimental: (§2) Monocyte and macrophage depleted peripheral blood mononuclear cells were obtained from consenting adults via separation using Ficoll-Hypaque. The peripheral blood mononuclear cells (PBMC) fraction was washed and seeded in 9 cm petri dishes. After an incubation of 2 hours at 37° C. to remove most of the monocytes, macrophages, and B-cells, the non-adherent cells were collected and cultured in 175cm^2 flasks for 2 days. Cells were harvested and adjusted to 3 million cells per ml. Aliquots of 500μl were transferred to each well of 24-well flat bottom plates. Peripheral blood lymphocytes (PBL's) were treated with various concentrations of HDAC inhibitors as indicated. After a 2 hour incubation time at 37°C cells were stimulated with phorbol 12-myristate 13-acetate (PMA) / ionomycin (Ion) or activated via T cell receptor (TCR/CD3) complex with 10μg/m1 anti-CD3 mAb (OKT3) and 2.5μg/ml anti-CD28 mAb. After 24 hours at 37° C. the supernatant was removed and frozen for cytokine assays. Cell pellets were lysed and total RNA was isolated using the RNeasy mini kit from Qiagen.
as §1

IL-2 = IL-2 ELISA of PBL supernatants; assay type: cell-based, human; conditions: for secretion of IL-2 / concentration of maximal inhibition of IL-2 expression: CD3/CD28; for secretion of IL-2 / IL-2 secretion, dose-response / concentration of maximal inhibition of IL-2 expression: FIG. 6; for IL-2 secretion, dose-response / concentration of maximal inhibition of IL-2 expression: PBLs; for IL-2 secretion, dose-response: 2 h preincubation, CD3 and CD28 mAbs 24 h
Experimental: as §2
(§3) To perform ELISA's, supernatants of treated and untreated PBL's were collected and IL-2 as well as TNF-α were measured using the Duo Set ELISA Development System (R&D Systems) as described by the manufacturer.

TNF-α = TNF-α ELISA of PBL supernatants; assay type: cell-based, human; conditions: for TNF-α secretion, dose-response / concentration of maximal inhibition of TNF-α expression: PBLs, FIG. 6; for TNF-α secretion, dose-response: 2 h preincubation, CD3 and CD28 mAbs 24 h; for concentration of maximal inhibition of TNF-α expression: CD3/CD28
Experimental: as §2, §3

[4] = test system: Acetylated histones H3 and H4 and the marker gene HDAC-2; assay: Western blot of peripheral blood cells from patients treated with 2PPA (phase I/II); assay type: in vivo, human; conditions: 2PPA intravenously, before, 6 h, 24 h, 48 h
Experimental: Whole cell extracts were prepared by lysis of cells in RIPA buffer including protease inhibitors. Lysates were separated by SDS gel electrophoresis and transferred onto PVDF membranes. Acetylated histones H3 and H4 and the marker gene HDAC-2 were detected by western blot analysis using an anti-acetylated H3 antibody (Upstate, #06-942), an anti-acetylated H4 antibody (clon T25; patent application EP 02.021984.6), and an anti-HDAC-2 antibody (SCBT, SC-7899). As an equal loading control PVDF membranes were stained with Coomassie (FIG. 9).

Peripheral blood cells = assay: Cytokine ELISA and RT-PCR in peripheral blood cells from a patient treated with 2PPA; assay type: in vivo, human
Experimental: The cells were either left unstimulated or stimulated with CD3 and CD28 antibodies. After 24 hours at 37° C. the supernatant was collected and the secretion of IL-2 and TNF-α was quantified by ELISA (R&D Systems) (FIGS. 10A and B).
Total RNA from unstimulated and CD3/CD28 stimulated cells was isolated using the RNeasy mini kit (Qiagen). One microgram of total RNA was converted to cDNA by standard methods using reverse transcriptase and an oligo-dT primer (Invitrogen). For semiquantitative PCR, 2 μl of cDNA were amplified by PCR using the specific primers as described above (FIG. 10C).

[5] = EP application No. 03014278.0; cited from earlier work
[6] = test system: stage III/IV non-small cell lung cancer; conditions: monotherapy; Keer et al., 2002; cited from earlier work
PPARδ = conditions: cited from earlier work
[7] = test system: acute promyelocytic leukemia; conditions: PML-RAR patient with multiple relapses after retinoic acid; Warrell et al., 1998; cited from earlier work
[8] = 1 mM, other experiments, PMA/ION and CD3/CD28, FIG. 7
[9] = starting at 24 hours of 2PPA treatment

## CCCC(CCC)C(=O)O [2PPA, 2-propyl-pentanoic acid]
[1]
  inhibition of cell viability: 20-80%
C57BL/6J-APC^min mice; APC^min mice treated for 4 weeks, FIG. 2 legend
  number of colorectal adenomas: reduction in the number of colorectal adenomas
C57BL/6J-APC^min mice; four weeks, 2-PPA sodium salt i.p. 2×400 mg/kg/day, Celecoxib 1250 ppm in feed, FIG. 2A, 400 mg/kg/day
  number of adenomas in the small intestine: reduces adenoma formation; also recorded: clearly reduces the number of adenomas
C57BL/6J-APC^min mice; mouse, in vivo
  abnormalities in the gastrointestinal tract: did not show any abnormalities in the gastrointestinal tract
[2]
  mRNA transcript of IFN-γ: significantly reduced
  level of IL-6 mRNA: significant decrease
  level of TNF-α mRNA: significant decrease
[3]
  IL-6 mRNA: decreased IL-6 mRNA back to the level seen in the unstimulated sample
  PMA/Ion mediated stimulation of IL-4 mRNA: significantly reduced
IL-2; 0.5 mM
  secretion of IL-2: only moderate effect
IL-2; 1 mM
  secretion of IL-2: only moderate effect
IL-2; [8]
  IL-2 secretion: significant decrease
IL-2; 5 mM
  secretion of IL-2: significantly reduced
IL-2
  IL-2 secretion, dose-response: dose-dependent inhibition
TNF-α; [8]
  TNF-α secretion: significant decrease
TNF-α
  TNF-α secretion, dose-response: dose-dependent inhibition
[4]
  Histone H3 and H4 acetylation in peripheral blood cells: Histone H3 and H4 hyperacetylation
  marker protein HDAC-2 in peripheral blood cells: down-regulation of the marker protein HDAC-2
Peripheral blood cells; CD3/CD28 stimulated
  IL-2 mRNA transcripts: decrease
  TNF-α mRNA transcripts: decrease
Peripheral blood cells; CD3/CD28 stimulated 24 h
  IL-2 in the culture supernatant (ELISA): modulates the expression
  TNF-α in the culture supernatant (ELISA): modulates the expression
Peripheral blood cells; [9]
  cytokine mRNA expression of IFN-γ: significantly reduced
  cytokine mRNA expression of IL-4: significantly reduced
[5]
  skin permeation: permeates human skin effectively

## Cc1ccc(-c2cc(C(F)(F)F)nn2-c2ccc(S(N)(=O)=O)cc2)cc1 [Celecoxib]
C57BL/6J-APC^min mice; APC^min mice after four weeks of treatment, FIG. 2B
  abnormalities in the gastrointestinal tract: intensely inflated stomach, small intestine, and colon

## O=C(CCC1CCCC1)NO [G2M-701]
[3]
  modulation of cytokine expression: can modulate cytokine expression
IL-2
  IL-2 secretion, dose-response: dose-dependent inhibition
  concentration of maximal inhibition of IL-2 expression: 6 µM
TNF-α
  TNF-α secretion, dose-response: dose-dependent inhibition
  concentration of maximal inhibition of TNF-α expression: 6 µM

## O=C(CCC1CCCCC1)NO [G2M-702]
[3]
  modulation of cytokine expression: can modulate cytokine expression
IL-2
  IL-2 secretion, dose-response: dose-dependent inhibition
  concentration of maximal inhibition of IL-2 expression: 3 µM
TNF-α
  TNF-α secretion, dose-response: dose-dependent inhibition
  concentration of maximal inhibition of TNF-α expression: 3 µM

## O=C(/C=C/C1CCCCC1)NO [G2M-707]
[3]
  modulation of cytokine expression: can modulate cytokine expression
IL-2
  IL-2 secretion, dose-response: dose-dependent inhibition
  concentration of maximal inhibition of IL-2 expression: 1 µM
TNF-α
  TNF-α secretion, dose-response: dose-dependent inhibition
  concentration of maximal inhibition of TNF-α expression: 1 µM

## CCCC(=O)OCOC(=O)C(C)(C)C [Pivanex, Pivaloyloxymethyl butyrate]
[6]
  clinical activity: activity in stage III/IV non-small cell lung cancer

## O=C(CCCCCCC(=O)Nc1ccccc1)NO [SAHA, suberoylanilide hydroxamic acid]
[3]
  modulation of cytokine expression: can modulate cytokine expression

## CC(/C=C/C(=O)NO)=C\[C@@H](C)C(=O)c1ccc(N(C)C)cc1 [TSA, Trichostatin A]
[2]
  mRNA transcript of IFN-γ: virtually unaffected
  level of IL-6 mRNA: significant decrease
  level of TNF-α mRNA: significant decrease
[3]
  IL-6 mRNA: only moderate effects
  PMA/Ion mediated stimulation of IL-4 mRNA: significantly reduced
PPARδ
  activation of PPARδ: activates PPARδ

## phenylbutyrate
[7]
  clinical outcome: complete remission of the leukemia
